# Results reported in patent publication US20070185161A1, “Bicyclic substituted indole-derivative steroid hormone nuclear receptor modulators” (priority 2004, published 2007).
# Target: T1, glucocorticoid receptor (A549 human lung epithelial cell extract) (Homo sapiens, UniProt P04150)
# T1 construct: host or cells: A549 human lung epithelial cells
# T1 sequence (P04150 1-777): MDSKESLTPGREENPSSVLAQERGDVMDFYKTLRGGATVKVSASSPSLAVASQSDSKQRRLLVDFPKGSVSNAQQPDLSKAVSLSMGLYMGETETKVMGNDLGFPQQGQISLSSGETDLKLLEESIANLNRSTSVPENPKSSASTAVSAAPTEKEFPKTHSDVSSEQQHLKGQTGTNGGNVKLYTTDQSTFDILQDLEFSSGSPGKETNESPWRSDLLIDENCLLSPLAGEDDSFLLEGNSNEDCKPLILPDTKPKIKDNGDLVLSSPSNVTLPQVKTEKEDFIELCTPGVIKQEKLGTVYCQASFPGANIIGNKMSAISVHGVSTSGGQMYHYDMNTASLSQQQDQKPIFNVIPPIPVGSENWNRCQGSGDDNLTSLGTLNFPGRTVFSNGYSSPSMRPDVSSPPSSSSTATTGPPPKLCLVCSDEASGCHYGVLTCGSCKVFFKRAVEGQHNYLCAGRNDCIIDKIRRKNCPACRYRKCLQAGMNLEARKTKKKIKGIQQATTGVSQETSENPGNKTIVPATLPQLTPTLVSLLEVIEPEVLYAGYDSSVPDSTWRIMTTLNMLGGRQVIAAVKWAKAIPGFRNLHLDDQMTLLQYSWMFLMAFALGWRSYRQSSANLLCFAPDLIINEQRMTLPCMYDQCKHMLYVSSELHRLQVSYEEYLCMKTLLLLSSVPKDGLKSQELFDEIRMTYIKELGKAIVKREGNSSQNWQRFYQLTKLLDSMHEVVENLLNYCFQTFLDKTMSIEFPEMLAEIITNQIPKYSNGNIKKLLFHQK
# Experiment: Glucocorticoid Receptor Binding Assay (Method 1)
# Conditions: [3H]-dexamethasone, racemic mixture unless otherwise indicated, read-out: GR Ki (nM) Method 1
# Procedure: A549 human lung epithelial cells (ATCC) are grown at a scale where gram quantity cell pellets are obtained. Harvested cell pellets are washed twice in cold phosphate buffered saline, centrifuged, and resuspended in cold assay binding buffer. The assay binding buffer consists of 10% glycerol, 50 mM Tris-HCl (pH7.2), 75 mM sodium chloride, 1.5 mM magnesium chloride, 1.5 mM EDTA, and 10 mM sodium molybdate. Cell suspensions were lysed via sonication, centrifuged, and the “extract” supernatant is snap frozen and stored at −80 C until needed.
# GR binding assays are performed in a final volume of 140 ul containing 50-200 ug of A549 cell extract and 1.86 nM [^3H]-dexamethasone (Amersham) plus varying concentrations of test compound or vehicle. Briefly, assays are prepared at RT in 96-well Fisher 3356 plates, each well containing 100 ul of A549 cell extract, 20 ul of [^3H]-dexamethasone, and 20 ul of test compound/vehicle. Incubations are carried out at 4 degrees Celsius for 16 hours. After incubation, 70 ul of 3× dextran-coated charcoal solution is added to each reaction, mixed, and incubated for 8 minutes at RT. 3×-dextran-coated charcoal solution consists of 250 ml assay binding buffer, 3.75 g Norit A charcoal (Sigma), and 1.25 g dextran T-70 (Amersham). Charcoal/unbound radioligand complexes are removed by centrifugation of the plate and 140 ul of supernatant from each well is transferred to another 96 well Optiplate (Packard Instruments). 200 ul of Microscint-20 scinillant (Packard Instruments) is added to each well and amount of receptor bound radioligand is determined using Packard Instruments TopCount instrument.
# IC50 values, defined as the concentration of test compound required to decrease [^3H]-dexamethasone binding by 50%, are then determined. Ki values for each respective test compound can then be calculated by application of the Cheng-Prusoff equation as described in Cheng et al., Relationship Between The Inhibition Constant (Ki) and The Concentration of Inhibitor Which Causes 50% Inhibition (IC50) of an Enzymatic Reaction, Biochem. Pharmacol., 22: 3099-31088; (1973).
row,Ki,Compound
1,≤ 500 nM,"CCC1(c2c[nH]c3c(NS(C)(=O)=O)cccc23)CCc2cc(F)ccc21 (racemic) [Example 1, N-[3-(1-ethyl-5-fluoro-indan-1-yl)-1H-indol-7-yl]-methanesulfonamide]"
2,≤ 500 nM,"CC1(c2c[nH]c3c(NS(C)(=O)=O)cccc23)CCc2cc(F)ccc21 (racemic) [Example 21, N-[3-(5-Fluoro-1-methyl-indan-1-yl)-1H-indol-7-yl]-methanesulfonamide]"
3,≤ 500 nM,"CCC1(c2c[nH]c3c(NS(C)(=O)=O)cccc23)CCc2cc(F)cc(F)c21 (racemic) [Example 23, N-[3-(1-Ethyl-5,7-difluoro-indan-1-yl)-1H-indol-7-yl]-methanesulfonamide]"
4,≤ 500 nM,"CC1(c2c[nH]c3c(NS(C)(=O)=O)cccc23)CCCc2cc(F)ccc21 (racemic) [Example 28, N-[3-(6-Fluoro-1-methyl-1,2,3,4-tetrahydro-naphthalen-1-yl)-1H-indol-7-yl]-methanesulfonamide]"
5,≤ 500 nM,"CCC1(c2c[nH]c3c(NS(C)(=O)=O)cccc23)CCCc2cc(F)ccc21 (racemic) [Example 29, N-[3-(1-Ethyl-6-fluoro-1,2,3,4-tetrahydro-naphthalen-1-yl)-1H-indol-7-yl]-methanesulfonamide]"
6,≤ 500 nM,"CCC1(c2c[nH]c3c(NS(C)(=O)=O)cccc23)CCCc2cc(F)cc(F)c21 (racemic) [Example 31, N-[3-(1-Ethyl-6,8-difluoro-1,2,3,4-tetrahydro-naphthalen-1-yl)-1H-indol-7-yl]-methanesulfonamide]"
7,≤ 500 nM,"CCC1(c2c[nH]c3c(NS(C)(=O)=O)cccc23)CCc2cc(F)ccc21 (single isomer, unassigned) [Example 1A, N-[3-(1-ethyl-5-fluoro-indan-1-yl)-1H-indol-7-yl]-methanesulfonamide]"
8,≤ 500 nM,"CC1(c2c[nH]c3c(NS(C)(=O)=O)cccc23)CCc2cc(F)ccc21 (single isomer, unassigned) [Example 21A, N-[3-(5-Fluoro-1-methyl-indan-1-yl)-1H-indol-7-yl]-methanesulfonamide]"
9,≤ 500 nM,"CC1(c2c[nH]c3c(NS(C)(=O)=O)cccc23)CCc2cc(F)ccc21 (single isomer, unassigned) [Example 21B, N-[3-(5-Fluoro-1-methyl-indan-1-yl)-1H-indol-7-yl]-methanesulfonamide]"
10,≤ 500 nM,"CCC1(c2c[nH]c3c(NS(C)(=O)=O)cccc23)CCc2cc(F)cc(F)c21 (single isomer, unassigned) [Example 23A, N-[3-(1-Ethyl-5,7-difluoro-indan-1-yl)-1H-indol-7-yl]-methanesulfonamide]"
11,≤ 10000 nM,"CCC1(c2c[nH]c3c(NS(C)(=O)=O)cccc23)CCc2cc(F)cc(F)c21 (single isomer, unassigned) [Example 23B, N-[3-(1-Ethyl-5,7-difluoro-indan-1-yl)-1H-indol-7-yl]-methanesulfonamide]"
12,≤ 500 nM,"CC1(c2c[nH]c3c(NS(C)(=O)=O)cccc23)CCCc2cc(F)ccc21 (single isomer, unassigned) [Example 28A, N-[3-(6-Fluoro-1-methyl-1,2,3,4-tetrahydro-naphthalen-1-yl)-1H-indol-7-yl]-methanesulfonamide]"
13,≤ 500 nM,"CC1(c2c[nH]c3c(NS(C)(=O)=O)cccc23)CCCc2cc(F)ccc21 (single isomer, unassigned) [Example 28B, N-[3-(6-Fluoro-1-methyl-1,2,3,4-tetrahydro-naphthalen-1-yl)-1H-indol-7-yl]-methanesulfonamide]"
14,≤ 500 nM,"CCC1(c2c[nH]c3c(NS(C)(=O)=O)cccc23)CCCc2cc(F)ccc21 (single isomer, unassigned) [Example 29A, N-[3-(1-Ethyl-6-fluoro-1,2,3,4-tetrahydro-naphthalen-1-yl)-1H-indol-7-yl]-methanesulfonamide]"
15,≤ 500 nM,"CCC1(c2c[nH]c3c(NS(C)(=O)=O)cccc23)CCCc2cc(F)ccc21 (single isomer, unassigned) [Example 29B, N-[3-(1-Ethyl-6-fluoro-1,2,3,4-tetrahydro-naphthalen-1-yl)-1H-indol-7-yl]-methanesulfonamide]"
16,≤ 500 nM,"CC1(c2c[nH]c3c(NS(C)(=O)=O)cccc23)CCc2ccccc21 (stereo not drawn) [Example 20, N-[3-(1-Methyl-indan-1-yl)-1H-indol-7-yl]-methanesulfonamide]"
17,≤ 500 nM,"CC1(c2c[nH]c3c(NS(C)(=O)=O)cccc23)CCc2cc(-n3cccn3)ccc21 (stereo not drawn) [Example 24, N-[3-(1-Methyl-5-pyrazol-1-yl-indan-1-yl)-1H-indol-7-yl]-methanesulfonamide]"
18,≤ 500 nM,"CS(=O)(=O)Nc1cccc2c(C3CCCc4ccccc43)c[nH]c12 (stereo not drawn) [Example 25, N-[3-(1,2,3,4-Tetrahydro-naphthalen-1-yl)-1H-indol-7-yl]-methanesulfonamide]"
19,≤ 500 nM,"CC1(c2c[nH]c3c(NS(C)(=O)=O)cccc23)CCCc2ccccc21 (stereo not drawn) [Example 26, N-[3-(1-Methyl-1,2,3,4-tetrahydro-naphthalen-1-yl)-1H-indol-7-yl]-methanesulfonamide]"
20,≤ 500 nM,"CCC1(c2c[nH]c3c(NS(C)(=O)=O)cccc23)CCCc2ccccc21 (stereo not drawn) [Example 27, N-[3-(1-Ethyl-1,2,3,4-tetrahydro-naphthalen-1-yl)-1H-indol-7-yl]-methanesulfonamide]"
21,≤ 500 nM,"CC1(c2c[nH]c3c(NS(C)(=O)=O)cccc23)CCOc2ccccc21 (stereo not drawn) [Example 32, N-[3-(4-Methyl-chroman-4-yl)-1H-indol-7-yl]-methanesulfonamide]"
22,≤ 500 nM,"CC1(c2c[nH]c3c(NS(C)(=O)=O)cccc23)CCOc2ccc(F)cc21 (stereo not drawn) [Example 33, N-[3-(6-Fluoro-4-methyl-chroman-4-yl)-1H-indol-7-yl]-methanesulfonamide]"
23,≤ 500 nM,"CC1(c2c[nH]c3c(NS(C)(=O)=O)cccc23)CCSc2ccccc21 (stereo not drawn) [Example 37, N-[3-(4-Methyl-thiochroman-4-yl)-1-indol-7-yl]-methanesulfonamide]"
24,≤ 500 nM,"CC1(c2c[nH]c3c(NS(C)(=O)=O)cccc23)CCCCc2ccccc21 (stereo not drawn) [Example 38, N-[3-(5-Methyl-6,7,8,9-tetrahydro-5H-benzocyclohepten-5-yl)-1H-indol-7-yl]-methanesulfonamide]"
